According to patent US20220089575A1, “FARNESOID X RECEPTOR AGONISTS AND USES THEREOF” (Metacrine, Inc., priority 2017, published 2022):

Each compound was assayed against T1, hFXR (Homo sapiens, UniProt Q96RI1) (assay: In Vitro FXR Assay (TK): TK-ECRE-luc reporter in transfected CV-1 cells). Conditions: 18 hrs, luminescence, maximum efficacy of <25% of the Fexarmine control classified as '+'.
T1 construct: expressed in transfected cells; host or cells: CV-1 cells
T1 sequence (Q96RI1 1-486): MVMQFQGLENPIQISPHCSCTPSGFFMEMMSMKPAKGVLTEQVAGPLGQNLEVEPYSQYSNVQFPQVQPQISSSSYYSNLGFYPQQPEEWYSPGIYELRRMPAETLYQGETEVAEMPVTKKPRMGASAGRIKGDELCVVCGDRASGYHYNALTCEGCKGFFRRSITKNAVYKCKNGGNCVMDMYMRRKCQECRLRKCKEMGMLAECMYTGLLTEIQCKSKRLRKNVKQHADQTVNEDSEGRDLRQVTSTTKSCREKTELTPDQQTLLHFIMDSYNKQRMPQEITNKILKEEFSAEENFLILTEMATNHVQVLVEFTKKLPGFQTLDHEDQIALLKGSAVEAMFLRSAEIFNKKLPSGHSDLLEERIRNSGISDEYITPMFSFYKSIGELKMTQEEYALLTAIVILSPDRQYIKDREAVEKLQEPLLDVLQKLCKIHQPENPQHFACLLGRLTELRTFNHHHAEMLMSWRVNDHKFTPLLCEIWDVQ
T1 sequence (P19793 1-462 partner): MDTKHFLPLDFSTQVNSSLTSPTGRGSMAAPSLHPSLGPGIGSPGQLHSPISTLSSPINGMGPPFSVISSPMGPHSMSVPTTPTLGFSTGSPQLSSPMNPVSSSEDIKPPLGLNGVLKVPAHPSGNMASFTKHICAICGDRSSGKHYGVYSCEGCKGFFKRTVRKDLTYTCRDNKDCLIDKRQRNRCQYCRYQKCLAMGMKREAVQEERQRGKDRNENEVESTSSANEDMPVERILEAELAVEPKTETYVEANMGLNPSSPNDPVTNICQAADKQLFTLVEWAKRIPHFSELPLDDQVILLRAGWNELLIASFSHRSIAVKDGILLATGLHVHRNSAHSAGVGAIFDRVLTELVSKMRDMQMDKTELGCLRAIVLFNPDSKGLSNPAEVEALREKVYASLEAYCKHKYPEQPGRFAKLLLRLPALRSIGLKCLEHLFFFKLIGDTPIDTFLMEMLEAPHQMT
Format: cell-based
How it was run: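 Luciferase read-out after 18 h compound exposure of CV-1 cells carrying transfected hFXR plus hRXR expression plasmids, TK-ECRE-luc reporter and pCMX-YFP. Cells cultured in charcoal-stripped FBS before transfection; compounds serially diluted in DMSO.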

| Compound | EC50 [µM] |
| --- | --- |
| CNC(=O)O[C@H]1CC[C@H](C(=O)N(C[C@H]2CC[C@H](c3ccc(OC)c(C#N)n3)CC2)c2cccc(-c3coc(C4CC4)n3)c2)CC1 [Compound 5.42, trans-4-(((trans-4-(6-Cyano-5-methoxypyridin-2-yl)cyclohexyl)methyl)(3-(2-cyclopropyloxazol-4-yl)phenyl)carbamoyl)cyclohexyl methylcarbamate] | ≤ 0.25 |
| COc1ccc([C@H]2CC[C@H](CN(c3cc(-c4cnn(C(C)C)c4)ccn3)C(=O)[C@H]3CC[C@H](OC(=O)N4CCN(C)CC4)CC3)CC2)cc1C#N [Compound 6.38, trans-4-(((trans-4-(3-Cyano-4-methoxyphenyl)cyclohexyl)methyl)(4-(1-isopropyl-1H-pyrazol-4-yl)pyridin-2-yl)carbamoyl)cyclohexyl 4-methylpiperazine-1-carboxylate] | ≤ 0.25 |
| COc1ccc([C@H]2CC[C@H](CN(c3cc(-c4coc(C5CC5)n4)ccn3)C(=O)[C@H]3CC[C@H](OC(=O)NC4COC4)CC3)CC2)nc1C [Compound 6.60, trans-4-((4-(2-Cyclopropyloxazol-4-yl)pyridine-2-yl)((trans-4-(5-methoxy-6-methylpyridin-2-yl)cyclohexyl)methyl)carbamoyl)cyclohexyl oxetan-3-ylcarbamate] | ≤ 0.25 |
| CNC(=O)O[C@H]1CC[C@H](C(=O)N(C[C@H]2CC[C@H](c3ccc(OC)c(C)n3)CC2)c2cccc(-c3ccc(N(C)C)nc3)c2)CC1 [Compound 5.41, trans-4-((3-(6-((Dimethylamino)pyridine-3-yl)phenyl)((trans-4-(5-methoxy-6-methylpyridin-2-yl)cyclohexyl)methyl)carbamoyl)cyclohexyl methylcarbamate] | ≤ 0.25 |
| COC(=O)NCC(=O)N[C@H]1CC[C@H](C(=O)N(C[C@H]2CC[C@H](c3ccc(OC)c(C)c3)CC2)c2cccc(-c3cnn(C4CC4)c3)c2)CC1 [Compound 31, Methyl (2-((trans-4-((03-(1-cyclopropyl-1H-pyrazol-4-yl)phenyl)((trans-4-(4-methoxy-3-methylphenyl)cyclohexyl)methyl)carbamoyl)cyclohexyl)amino)-2-oxoethyl)carbamate] | ≤ 0.25 |
| CNC(=O)O[C@H]1CC[C@H](C(=O)N(C[C@H]2CC[C@H](c3ccc(OC)c(C)c3)CC2)c2cccc(-c3ccc(C4CC4)nc3)c2)CC1 [Compound 5.37, trans-4-((3-(6-Cyclopropylpyridin-3-yl)phenyl)((trans-4-(4-methoxy-3-methylphenyl)cyclohexyl)methyl)carbamoyl)cyclohexyl methylcarbamate] | ≤ 0.25 |
| CNC(=O)O[C@H]1CC[C@H](C(=O)N(C[C@H]2CC[C@H](c3ccc(OC)c(C)c3)CC2)c2cc(-c3coc(C4CC4)n3)ccn2)CC1 [Compound 5.33, trans-4-((4-(2-Cyclopropyloxazol-4-yl)pyridine-2-yl)((trans-4-(4-methoxy-3-methylphenyl)cyclohexyl)methyl)carbamoyl)cyclohexyl methylcarbamate] | ≤ 0.25 |
| COc1ccc([C@H]2CC[C@H](CN(c3cccc(-c4cnn(C5CC5)c4)c3)C(=O)[C@H]3CC[C@H](OC(=O)NC(CO)CO)CC3)CC2)cc1C [Compound 6.11, trans-4-((3-(1-Cyclopropyl-1H-pyrazol-4-yl)phenyl)((trans-4-(4-methoxy-3-methylphenyl)cyclohexyl)methyl)carbamoyl)cyclohexyl (1,3-dihydroxypropan-2-yl)carbamate] | ≤ 0.25 |
| COc1ccc([C@H]2CC[C@H](CN(c3cc(-c4coc(C5CC5)n4)ccn3)C(=O)[C@H]3CC[C@H](OC(=O)N4CC(S(C)(=O)=O)C4)CC3)CC2)nc1C [Compound 6.61] | ≤ 0.25 |
| COc1ccc([C@H]2CC[C@H](CN(c3cc(-c4cnn(C(C)C)c4)ccn3)C(=O)[C@H]3CC[C@H](OC(=O)N4CCN(C)CC4)CC3)CC2)nc1C [Compound 6.41, trans-4-((4-(1-Isopropyl-1H-pyrazol-4-yl)pyridin-2-yl)((trans-4-(5-methoxy-6-methylpyridin-2-yl)cyclohexyl)methyl)carbamoyl)cyclohexyl 4-methylpiperazine-1-carboxylate] | ≤ 0.25 |
| COc1ccc([C@H]2CC[C@H](CN(c3cccc(-c4cnn(C5CC5)c4)c3)C(=O)[C@H]3CC[C@H](OC(=O)NC4CC4)CC3)CC2)cc1C [Compound 4.08, trans-4-((3-(1-Cyclopropyl-1H-pyrazol-4-yl)phenyl)((trans-4-(4-methoxy-3-methylphenyl)cyclohexyl)methyl)carbamoyl)cyclohexyl cyclopropylcarbamate] | ≤ 0.25 |

The remaining lines, values ahead:

| EC50 [µM] | Compound |
| --- | --- |
| ≤ 0.25 | COc1ccc([C@H]2CC[C@H](CN(c3cccc(-c4coc(C5CC5)n4)c3)C(=O)[C@H]3CC[C@H](C(=O)OC)CC3)CC2)nc1C#N [Compound 18.24, trans-Methyl 4-(((trans-4-(6-cyano-5-methoxypyridin-2-yl)cyclohexyl)methyl)(3-(2-cyclopropyloxazol-4-yl)phenyl)carbamoyl) cyclohexanecarboxylate] |
| ≤ 0.25 | COC(=O)[C@H]1CC[C@H](C(=O)N(C[C@H]2CC[C@H](c3ccc(N(C)C)nc3)CC2)c2cccc(-c3cnn(C4CC4)c3)c2)CC1 [Compound 18.14, trans-Methyl 4-((3-(1-cyclopropyl-1H-pyrazol-4-yl)phenyl)((trans-4-(6-(dimethylamino)pyridin-3-yl)cyclohexyl)methyl)carbamoyl) cyclohexanecarboxylate] |
| ≤ 0.25 | COc1ccc([C@H]2CC[C@H](CN(c3cccc(-c4cnn(C5CC5)c4)c3)C(=O)[C@H]3CC[C@H](C(=O)O)CC3)CC2)cc1C#N [Compound 17.22, trans-4-(((trans-4-(3-Cyano-4-methoxyphenyl)cyclohexyl)methyl)(3-(1-cyclopropyl-1H-pyrazol-4-yl)phenyl)carbamoyl)cyclohexanecarboxylic acid] |
| ≤ 0.25 | COc1ccc([C@H]2CC[C@H](CN(c3cccc(-c4cnn(C5CC5)c4)c3)C(=O)[C@H]3CC[C@H](OC(=O)NCC(=O)O)CC3)CC2)cc1C [Compound 7.18, 2-((((trans-4-((3-(1-Cyclopropyl-1H-pyrazol-4-yl)phenyl)((trans-4-(4-methoxy-3-methylphenyl)cyclohexyl)methyl)carbamoyl)cyclohexyl)oxy)carbonyl)amino)acetic acid] |
| ≤ 0.25 | COc1ccc([C@H]2CC[C@H](CN(c3cccc(-c4cnn(C5CC5)c4)c3)C(=O)[C@H]3CC[C@H](CC(=O)O)CC3)CC2)cc1C [Compound 20.09, 2-(trans-4-((3-(1-Cyclopropyl-1H-pyrazol-4-yl)phenyl)((trans-4-(4-methoxy-3-methylphenyl)cyclohexyl)methyl)carbamoyl)cyclohexyl)acetic acid] |
| ≤ 0.25 | COc1ccc(C23CCC(CN(c4cccc(-c5cnc(C6CC6)s5)c4)C(=O)[C@H]4CC[C@H](C(=O)O)CC4)(CC2)CC3)cc1C [Compound 17.05, trans-4-((3-(2-Cyclopropylthiazol-5-yl)phenyl)((4-(4-methoxy-3-methylphenyl)bicyclo[2.2.2]octan-1-yl)methyl)carbamoyl) cyclohexanecarboxylic acid] |
| ≤ 0.25 | COCCNC(=O)[C@H]1CC[C@H](C(=O)N(C[C@H]2CC[C@H](c3ccc(OC)c(C)c3)CC2)c2cccc(-c3cnc(OC)s3)c2)CC1 [Compound 24.04, trans-N^1-((trans-4-(4-Methoxy-3-methylphenyl)cyclohexyl)methyl)-N^4-(2-methoxyethyl)-N^1-(3-(2-methoxythiazol-5-yl)phenyl) cyclohexane-1,4-dicarboxamide] |
| ≤ 0.25 | COc1ccc([C@H]2CC[C@H](CN(c3cc(-c4cnc(C(C)C)s4)ccn3)C(=O)[C@H]3CC[C@H](OC(=O)N4CC(O)C4)CC3)CC2)cc1C [Compound 7.04, trans-4-((4-(2-Isopropylthiazol-5-yl)pyridin-2-yl)((trans-4-(4-methoxy-3-methylphenyl)cyclohexyl)methyl)carbamoyl)cyclohexyl 3-hydroxyazetidine-1-carboxylate] |
| ≤ 0.25 | COc1ccc([C@H]2CC[C@H](CN(c3cccc(-c4cnn(C5CC5)c4)c3)C(=O)[C@H]3CC[C@H](C(=O)O)CC3)CC2)cc1C [Compound 17.13, trans-4-((3-(1-Cyclopropyl-1H-pyrazol-4-yl)phenyl)((trans-4-(4-methoxy-3-methylphenyl)cyclohexyl)methyl)carbamoyl)cyclohexanecarboxylic acid] |
| ≤ 0.25 | COc1ccc([C@H]2CC[C@H](CN(c3cccc(-c4cnc(C5CC5)s4)c3)C(=O)[C@H]3CC[C@H](C(=O)O)CC3)CC2)cc1C#N [Compound 17.11, trans-4-(((trans-4-(3-Cyano-4-methoxyphenyl)cyclohexyl)methyl)(3-(2-4-cyclopropylthiazol-5-yl)phenyl)carbamoyl)cyclohexanecarboxylic acid] |
